# Test results reported in patent publication US20180263996A1, “ARYL SULTAM DERIVATIVES AS RORc MODULATORS” (Genentech, Inc., priority 2015, published 2018).
# Biological target: T1, RORc (Homo sapiens, UniProt P51449)
# T1 construct: host or cells: E. coli
# T1 sequence (P51449 269-508 limits assumed): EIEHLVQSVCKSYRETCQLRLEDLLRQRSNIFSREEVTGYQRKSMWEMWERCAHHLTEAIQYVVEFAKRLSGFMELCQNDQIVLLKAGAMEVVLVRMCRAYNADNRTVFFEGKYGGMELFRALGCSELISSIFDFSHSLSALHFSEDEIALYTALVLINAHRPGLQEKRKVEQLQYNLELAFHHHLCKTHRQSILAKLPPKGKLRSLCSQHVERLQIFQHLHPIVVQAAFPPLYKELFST
# Assay: In Vitro RORc Ligand Binding Assay
# Conditions: IC50 values for RORc
# Description: This assay was used to determine a compound's potency in inhibiting activity of RORc by determining, Kiapp, IC50, or percent inhibition values.
# On day of the assay, 100 uL of 0.05% CHAPS (in deionized H2O) was added to all wells of the GFB Unifilter plate and allowed soak for 1 h. A wash buffer of 50 mM HEPES (pH 7.4), 150 mM NaCl, and 5 mM MgCl2 was prepared to wash the filter plate. To prepare an assay buffer, BSA was added to the wash buffer to reach 0.01% and DTT was added to reach 1 mM.
# The 20× compound stocks were diluted in DMSO with Assay Buffer 4-fold to reach 5× the final test concentration in 25% DMSO (10 uL compound+30 uL Assay Buffer). Solutions were mixed by aspiration several times with a pipette set on 50 uL volume.
# For two point screening, 10 mM stock compound solutions were diluted in DMSO to obtain 200 uM (20× the high test concentration) and then diluted 10-fold further to reach 20 uM (20× the low test concentration). The 20× stocks were diluted 4-fold with Assay Buffer (10 uL compound+30 uL Assay Buffer) to reach 5× the test concentrations (50 uM and 5 uM) and 10 uL were added to two assay plates for the duplicate wells. With each concentration tested on 2 plates, each set of 80 compounds used 4 assay plates (1 uM and 10 uM, with n=2).
# For 25-hydroxycholesterol in 25% DMSO/75% Assay Buffer; 10 uL per well was used for NSB samples. Wells for Total Binding and No Receptor sample determination contained 10 uL of 25% DMSO/75% Assay Buffer per well.
# Add 20 uL to all wells to reach 6 nM final concentration in the assay.
# Stock receptor solution was diluted in assay buffer to obtain 1.5 ug/mL in Assay Buffer. 20 uL was added to all wells. For No Receptor samples, 20 uL Assay Buffer was substituted for receptor solution.
# Assay plates were 96-well polypropylene V-bottom plates. […] 10 uL of 25% DMSO/75% Assay Buffer was added to Total Binding or No Receptor wells. 10 uL of 5 uM 25-hydroxycholesterol in 25% DMSO/75% Assay Buffer was added to NSB wells. […] 20 uL of 1.5 ug/mL RORc receptor was added to wells (or 40 uL Assay Buffer to No R wells). Following addition to the wells, the plates were incubated 3 h at 25° C.
# Using a Packard Filtermate Harvester, the filter plate were washed 4 times following transfer of the incubated samples. Plates were dry-filtered completely (2 h at 50° C. or overnight at room temperature). 50 uL Microscint 0 was added to all wells and read on Topcount protocol Inverted.
# Final concentrations were as follows: 50 mM HEPES buffer (pH 7.4); 150 mM NaCl; 1 mM DTT; 5 mM MgCl2; 0.01% BSA; 5% DMSO; 0.6 ug/mL RORc receptor; 6 nM 25-[^3H]hydroxycholesterol. For NSB wells, 1 uM 25-hydroxycholesterol was also present.
row,IC50,SMILES
1,21.7 nM,"C[C@H]1CC[C@H](c2ccccc2)S(=O)(=O)N1Cc1cc(F)c(C23CC(C)(C2)OC3=O)cc1F [Compound 27, 4-[2,5-difluoro-4-[[(3S,6R)-3-methyl-1,1-dioxo-6-phenyl-thiazinan-2-yl]methyl]phenyl]-1-methyl-2-oxabicyclo[2.1.1]hexan-3-one]"
2,39.4 nM,"C[C@H]1CC[C@H](c2ccccc2)S(=O)(=O)N1Cc1cc(F)c([C@@]23C[C@@H]2COC3=O)cc1F [Compound 43, (1R,5S)-1-[2,5-difluoro-4-[[(3S,6R)-3-methyl-1,1-dioxo-6-phenyl-thiazinan-2-yl]methyl]phenyl]-3-oxabicyclo[3.1.0]hexan-2-one]"
3,199 nM,"C[C@H]1CC[C@H](c2ccccc2)S(=O)(=O)N1Cc1cc(F)c([C@]2(C(N)=O)C[C@@](C)(O)C2)cc1F [Compound 49, 1-[2,5-difluoro-4-[[(3S,6R)-3-methyl-1,1-dioxo-6-phenyl-thiazinan-2-yl]methyl]phenyl]-3-hydroxy-3-methyl-cyclobutanecarboxamide]"
4,131 nM,"C[C@H](NC1=CC(=O)CCC1)c1cc(F)c(CN2[C@@H](C)CC[C@H](c3ccccc3)S2(=O)=O)cc1F [Compound 26, 3-[[(1S)-1-[2,5-difluoro-4-[[(3S,6R)-3-methyl-1,1-dioxo-6-phenyl-thiazinan-2-yl]methyl]phenyl]ethyl]amino] cyclohex-2-en-1-one]"
5,64.2 nM,"C[C@H]1CC[C@H](c2ccccc2)S(=O)(=O)N1Cc1cc(F)c([C@H](OC2CCOCC2)C(N)=O)cc1F [Compound 7, (2S)-2-[2,5-difluoro-4-[[(3S,6R)-3-methyl-1,1-dioxo-6-phenyl-thiazinan-2-yl]methyl]phenyl]-2-tetrahydropyran-4-yloxy-acetamide]"
6,83.3 nM,"CC(NC(=O)c1cc[nH]n1)c1cc(F)c(CN2[C@@H](C)CC[C@H](c3ccccc3)S2(=O)=O)cc1F (stereo in doubt) [Compound 68, N-[1-[2,5-difluoro-4-[[(3S,6R)-3-methyl-1,1-dioxo-6-phenyl-thiazinan-2-yl]methyl]phenyl]ethyl]-1H-pyrazole-3-carboxamide]"
7,18.5 nM,"C[C@H]1CC[C@H](c2ccccc2)S(=O)(=O)N1Cc1cc(F)c(C2(C(N)=O)CC(CC#N)C2)cc1F (stereo partly drawn) [Compound 44, 3-(cyanomethyl)-1-[2,5-difluoro-4-[[(3S,6R)-3-methyl-1,1-dioxo-6-phenyl-thiazinan-2-yl]methyl]phenyl]cyclobutane-carboxamide]"
8,2.1 nM,"CNC(=O)COC1(c2cc(F)c(CN3[C@@H](C)CC[C@H](c4ccccc4)S3(=O)=O)cc2F)CC2(COC2)C1 [Compound 13, 2-[[6-[2,5-difluoro-4-[[(3S,6R)-3-methyl-1,1-dioxo-6-phenyl-thiazinan-2-yl]methyl]phenyl]-2-oxaspiro[3.3]heptan-6-yl]oxy]-N-methyl-acetamide]"
9,31 nM,"C[C@H]1CC[C@H](c2ccccc2)S(=O)(=O)N1Cc1cc(F)c([C@@H](OC2COC2)C(N)=O)cc1F [Compound 8, (2R)-2-[2,5-difluoro-4-[[(3S,6R)-3-methyl-1,1-dioxo-6-phenyl-thiazinan-2-yl]methyl]phenyl]-2-(oxetan-3-yloxy)acetamide]"
10,3 nM,"CC(NC(=O)c1csnn1)c1cc(F)c(CN2[C@@H](C)CC[C@H](c3ccccc3)S2(=O)=O)cc1F (stereo in doubt) [Compound 79, N-[1-[2,5-difluoro-4-[[(3S,6R)-3-methyl-1,1-dioxo-6-phenyl-thiazinan-2-yl]methyl]phenyl]ethyl]thiadiazole-4-carboxamide]"
11,56.8 nM,"C[C@H]1CC[C@H](c2ccccc2)S(=O)(=O)N1Cc1cc(F)c([C@H](CCC#N)C(N)=O)cc1F [Compound 16, (2S)-4-cyano-2-[2,5-difluoro-4-[[(3S,6R)-3-methyl-1,1-dioxo-6-phenyl-thiazinan-2-yl]methyl]phenyl]butanamide]"
12,265 nM,"C[C@@H](NC1=CC(=O)CCC1)c1cc(F)c(CN2[C@@H](C)CC[C@H](c3ccccc3)S2(=O)=O)cc1F [Compound 22, 3-[[(1R)-1-[2,5-difluoro-4-[[(3S,6R)-3-methyl-1,1-dioxo-6-phenyl-thiazinan-2-yl]methyl]phenyl]ethyl]amino] cylohex-2-en-1-one]"
13,47.9 nM,"CC(NC(=O)c1nc(N)n[nH]1)c1cc(F)c(CN2[C@@H](C)CC[C@H](c3ccccc3)S2(=O)=O)cc1F (stereo in doubt) [Compound 71, 3-amino-N-[1-[2,5-difluoro-4-[[(3S,6R)-3-methyl-1,1-dioxo-6-phenyl-thiazinan-2-yl]methyl]phenyl]ethyl]-1H-1,2,4-triazole-5-carboxamide]"

# Continued, compound first:
row,SMILES,IC50
1,"CC(NC(=O)Cc1cnoc1)c1cc(F)c(CN2[C@@H](C)CC[C@H](c3ccccc3)S2(=O)=O)cc1F (stereo partly drawn) [Compound 52, N-[1-[2,5-difluoro-4-[[(3S,6R)-3-methyl-1,1-dioxo-6-phenyl-thiazinan-2-yl]methyl]phenyl]ethyl]-2-isoxazol-4-yl-acetamide]",101 nM
2,"C[C@H]1CC[C@H](c2ccccc2)S(=O)(=O)N1Cc1ccc(C2(C(=O)NC3(CO)CC3)CCOCC2)cc1F [Compound 35, 4-[3-fluoro-4-[[(3S,6R)-3-methyl-1,1-dioxo-6-phenyl-thiazinan-2-yl]methyl]phenyl]-N-[1-(hydroxymethyl)cyclopropyl] tetrahydropyran-4-carboxamide]",42.9 nM
3,"CC(NC(=O)c1cn(C)cn1)c1cc(F)c(CN2[C@@H](C)CC[C@H](c3ccccc3)S2(=O)=O)cc1F (stereo in doubt) [Compound 62, N-[1-[2,5-difluoro-4-[[(3S,6R)-3-methyl-1,1-dioxo-6-phenyl-thiazinan-2-yl]methyl]phenyl]ethyl]-1-methyl-imidazole-4-carboxamide]",389 nM
4,"Cc1cc(C(=O)NC(C)c2cc(F)c(CN3[C@@H](C)CC[C@H](c4ccccc4)S3(=O)=O)cc2F)[nH]n1 (stereo in doubt) [Compound 56, N-[1-[2,5-difluoro-4-[[(3S,6R)-3-methyl-1,1-dioxo-6-phenyl-thiazinan-2-yl]methyl]phenyl]ethyl]-3-methyl-1H-pyrazole-5-carboxamide]",107 nM
5,"CC(NC(=O)c1c[nH]cn1)c1cc(F)c(CN2[C@@H](C)CC[C@H](c3ccccc3)S2(=O)=O)cc1F (stereo in doubt) [Compound 59, N-[1-[2,5-difluoro-4-[[(3S,6R)-3-methyl-1,1-dioxo-6-phenyl-thiazinan-2-yl]methyl]phenyl]ethyl]-1H-imidazole-4-carboxamide]",93 nM
6,"CO[C@H]1C[C@@H](NC(=O)C2(c3ccc(CN4[C@@H](C)CC[C@H](c5ccccc5)S4(=O)=O)c(F)c3)CCOCC2)C1 [Compound 32, 4-[3-fluoro-4-[[(3S,6R)-3-methyl-1,1-dioxo-6-phenyl-thiazinan-2-yl]methyl]phenyl]-N-(3-methoxycyclobutyl)tetrahydropyran-4-carboxamide]",53.5 nM
7,"CC(NCc1cocn1)c1cc(F)c(CN2[C@@H](C)CC[C@H](c3ccccc3)S2(=O)=O)cc1F (stereo partly drawn) [Compound 54, 1-[2,5-difluoro-4-[[(3S,6R)-3-methyl-1,1-dioxo-6-phenyl-thiazinan-2-yl]methyl]phenyl]-N-(oxazol-4-ylmethyl)ethanamine]",255 nM
8,"Cc1cc(C(=O)NC(C)c2cc(F)c(CN3[C@@H](C)CC[C@H](c4ccccc4)S3(=O)=O)cc2F)no1 (stereo in doubt) [Compound 51, N-[1-[2,5-difluoro-4-[[(3S,6R)-3-methyl-1,1-dioxo-6-phenyl-thiazinan-2-yl]methyl]phenyl]ethyl]-5-methyl-isoxazole-3-carboxamide]",7 nM
9,"Cc1ncoc1C(=O)NC(C)c1cc(F)c(CN2[C@@H](C)CC[C@H](c3ccccc3)S2(=O)=O)cc1F (stereo in doubt) [Compound 64, N-[1-[2,5-difluoro-4-[[(3S,6R)-3-methyl-1,1-dioxo-6-phenyl-thiazinan-2-yl]methyl]phenyl]ethyl]-4-methyl-oxazole-5-carboxamide]",231 nM
